# Laboratory results taken from publication PMC10041537, “Molecular origins of mutational spectra produced by the environmental carcinogen N-nitrosodimethylamine and SN1 chemotherapeutic agents” (NAR Cancer, 2023).
# What was measured:
# human = tested on: human; set-up: method as in PMID 21141240; conditions: cited from earlier work
# mouse genome = assay: Duplex sequencing, high-resolution mutational spectra and pLOGO of liver of NDMA-treated Mgmt−/− mice; type: in vivo
# Protocol: Most experiments utilized C57BL/6J gptΔ transgenic mice ([49],[50]), a gift from T. Nohmi. Some experiments used RaDR^R/R;gpt^g/g;Mgmt^−/− mice, which were created by crossing RaDR^R/R;gpt^g/gmice ([37]) with Mgmt^−/− mice ([51]). NDMA was synthesized and characterized as previously described ([52]) (Fig. S1). […] The first dose (3.5 mg/kg in 10 μl) was administered at 8 days of age, and the second dose (7 mg/kg in 20 μl) was administered at 15 days of age. Vehicle treated mice were administered equivalent volumes of saline. Mice were euthanized at ten weeks post-injection by CO2 inhalation. Both male and female mice were used in all experimental groups (n = 5) in all mouse experiments.
# To determine the identity of mutations and the sequence contexts in which they occur, we utilized a form of error-corrected sequencing called duplex sequencing (DS). Previously, we described how DS can be used directly on genomic samples derived from the gptΔ mouse to yield high-resolution mutational spectra in an unbiased (unselected) manner ([49]). Unlike the traditional gptΔ assay, DS evaluates the mutations throughout the entire 6382 bp transgenic region (which contains the gpt gene), without the need for a phenotypic selection. In the present work, 6.4 kb gpt-containing plasmids from gptΔ mouse livers and cell culture were isolated using a Miniprep Kit (Qiagen) following instructions of the manufacturer. Approximately 6 μg of plasmid DNA was diluted in 1× TE buffer-low EDTA, pH 8 (Thermo Scientific), transferred to a microTUBE AFA Fiber Pre-Slit Snap-Cap (Covaris) and sonicated using a Covaris E220 Focused-ultrasonicator. The following program was used to obtain 300–350 bp fragments: peak incident power = 140 W, duty factor = 10%, cycles per burst = 200, treatment time = 80 s, temperature = 4–7°C. DS libraries for gptΔ C57BL/6J mice and MEFs were prepared using the NEBNext Ultra II DNA Library Prep (E7103, NEB) or as described in Chawanthayatham et al. ([49]) and sequenced on a NextSeq500 or NovaSeq 6000 Illumina platform by using a 150 bp paired-end protocol (MIT BioMicro Center). DS libraries for the gptΔ mouse lungs and Mgmt^−/− mice were prepared using an input of 1 μg or 500 ng genomic DNA, respectively, using a TwinStrand Biosciences, Inc. Mouse Mutagenesis Kit according to the manufacturer's protocol. This kit uses probes that hybridize to 20 genomic regions, each 2.4 kb long. The genomic coordinates are provided in Supplementary Table S1. These probes were purposely selected to map in intronic and intergenic regions, to avoid selection bias. The libraries were sequenced on an Illumina NovaSeq 6000 DNA sequencer on an S4 flow cell using a 150 bp paired-end protocol (MIT BioMicro Center).
# For each sample, the two fastq files generated by the Illumina sequencer were converted into an unaligned bam file, using Picard Tools. The resulting bam file was processed using UnifiedConsensusMaker.py (version 3.0) as available from the Kennedy Lab at University of Washington (https://github.com/Kennedy-Lab-UW/Duplex-Sequencing). Briefly, this program queries the molecular tags on each read and assembles them into families (strands with the same tag). These are subsequently collapsed into single-strand consensus sequences (SSCS). Then, the software identifies the SSCS corresponding to the complementary strand; these are grouped together as a double-strand consensus sequence (DCS). Unpaired SSCSs were flagged and ignored for the rest of the analysis. Sequence information was accepted only when the information from the two complementary DNA strands was in perfect agreement. The DCSs (as fastq files) were subsequently aligned to the target region (6382 nt in the λ-EG10 genome) using Burrows-Wheeler aligner. Unmapped reads were filtered out. Finally, the properly aligned DCS reads were trimmed (bases 1–8 and 120–137) and collapsed into a pileup file using SamTools. […]
# C57BL/6J mice = tested on: C57BL/6J mice; set-up: method as in PMID 9500198; conditions: cited from earlier work
# [1] = C57BL/6J male mice, neonatal model
smiles,measurement,setting,value
"CN(C)N=O [NDMA, N-nitrosodimethylamine]",IARC classification,human,probable (Group 2A) human carcinogen
same,pLOGO Frequency (%),"mouse genome; A at 1, liver, Mgmt−/− mice",31.4%
same,pLOGO Value (log-odds binomial probability),"mouse genome; A at 1, liver, Mgmt−/− mice",47.10
same,pLOGO Frequency (%),"mouse genome; A at 2, liver, Mgmt−/− mice",31.0%
same,pLOGO Value (log-odds binomial probability),"mouse genome; A at 2, liver, Mgmt−/− mice",26.02
same,pLOGO Frequency (%),"mouse genome; A at 3, liver, Mgmt−/− mice",29.4%
same,pLOGO Value (log-odds binomial probability),"mouse genome; A at 3, liver, Mgmt−/− mice",12.99
same,pLOGO Frequency (%),"mouse genome; A at 5, liver, Mgmt−/− mice",28.3%
same,pLOGO Value (log-odds binomial probability),"mouse genome; A at 5, liver, Mgmt−/− mice",3.94
same,pLOGO Frequency (%),"mouse genome; A at -1, liver, Mgmt−/− mice",42.5%
same,pLOGO Value (log-odds binomial probability),"mouse genome; A at -1, liver, Mgmt−/− mice",256.46
same,pLOGO Frequency (%),"mouse genome; A at -2, liver, Mgmt−/− mice",32.8%
same,pLOGO Value (log-odds binomial probability),"mouse genome; A at -2, liver, Mgmt−/− mice",29.44
same,pLOGO Frequency (%),"mouse genome; A at -3, liver, Mgmt−/− mice",29.2%
same,pLOGO Value (log-odds binomial probability),"mouse genome; A at -3, liver, Mgmt−/− mice",4.17
same,pLOGO Frequency (%),"mouse genome; C at 2, liver, Mgmt−/− mice",24.5%
same,pLOGO Value (log-odds binomial probability),"mouse genome; C at 2, liver, Mgmt−/− mice",22.44
same,pLOGO Frequency (%),"mouse genome; G at 4, liver, Mgmt−/− mice",23.1%
same,pLOGO Value (log-odds binomial probability),"mouse genome; G at 4, liver, Mgmt−/− mice",13.22
same,pLOGO Frequency (%),"mouse genome; G at 5, liver, Mgmt−/− mice",22.8%
same,pLOGO Value (log-odds binomial probability),"mouse genome; G at 5, liver, Mgmt−/− mice",3.76
same,pLOGO Frequency (%),"mouse genome; G at 6, liver, Mgmt−/− mice",24.8%
same,pLOGO Value (log-odds binomial probability),"mouse genome; G at 6, liver, Mgmt−/− mice",20.10
same,pLOGO Frequency (%),"mouse genome; G at 7, liver, Mgmt−/− mice",24.2%
same,pLOGO Value (log-odds binomial probability),"mouse genome; G at 7, liver, Mgmt−/− mice",4.88
same,pLOGO Frequency (%),"mouse genome; G at -1, liver, Mgmt−/− mice",41.6%
same,pLOGO Value (log-odds binomial probability),"mouse genome; G at -1, liver, Mgmt−/− mice",324
same,pLOGO Frequency (%),"mouse genome; G at -2, liver, Mgmt−/− mice",24.3%
same,pLOGO Value (log-odds binomial probability),"mouse genome; G at -2, liver, Mgmt−/− mice",23.51
same,pLOGO Frequency (%),"mouse genome; G at -3, liver, Mgmt−/− mice",22.9%
same,pLOGO Value (log-odds binomial probability),"mouse genome; G at -3, liver, Mgmt−/− mice",4.27
same,pLOGO Frequency (%),"mouse genome; G at -4, liver, Mgmt−/− mice",22.6%
same,pLOGO Value (log-odds binomial probability),"mouse genome; G at -4, liver, Mgmt−/− mice",5.86
same,pLOGO Frequency (%),"mouse genome; G at -5, liver, Mgmt−/− mice",22.8%
same,pLOGO Value (log-odds binomial probability),"mouse genome; G at -5, liver, Mgmt−/− mice",4.67
same,pLOGO Frequency (%),"mouse genome; G at -6, liver, Mgmt−/− mice",23.9%
same,pLOGO Value (log-odds binomial probability),"mouse genome; G at -6, liver, Mgmt−/− mice",4.72
same,"AT→GC mutations, proportion of mutations",mouse genome; Mgmt−/− mice,1.7%
same,pLOGO Frequency (%),"mouse genome; T at -2, liver, Mgmt−/− mice",24.7%
same,pLOGO Value (log-odds binomial probability),"mouse genome; T at -2, liver, Mgmt−/− mice",9.33
same,sequence context of GC→AT mutations,mouse genome; liver of Mgmt−/− mice,5’-PuGN-3’
same,dominant single-base substitution,"mouse genome; liver of Mgmt−/− mice, 10 weeks post NDMA",GC→AT mutations
same,cosine similarity of mutational patterns in Mgmt−/− and WT mice,"mouse genome; liver, baseline-corrected, normalized spectra",0.98
same,incidence of hepatic tumors,C57BL/6J mice; [1],~80%
same,incidence of lung tumors,C57BL/6J mice; [1],7%
same,maximum tolerated dose,"C57BL/6J mice; total dose, i.p., neonatal mice",10.5 mg/kg
